Literature values in US10481160B2, “Combined anticancer drug sensitivity-determining marker” (KEIO UNIVERSITY, priority 2012, dated 2019).

Tested on: advanced/recurrent colorectal cancer

Q: With `N.N.O=C([O-])C1(C(=O)[O-])CCC1.[Pt+2]` [CBDCA, carboplatin] as the molecule, how does the “anti-tumor effect on colorectal cancer” value read?
A: ineffective

Q: With `[NH2][Pt]([NH2])([Cl])[Cl]` [CDDP, cisplatin] as the molecule, how does the “anti-tumor effect on colorectal cancer” value read?
A: ineffective

Q: For `O=C1[O][Pt]2([NH][C@@H]3CCCC[C@H]3[NH]2)[O]C1=O` [L-OHP, Oxaliplatin], which “anti-tumor effect on colorectal cancer” value is on record?
A: exhibits anti-tumor effect
